Patent publication US20250099431A1, “GLP-1R MODULATING COMPOUNDS” (priority 2020, published 2025)

Assays:
[1] = Microsomal stability (liver microsomal assay, mixed cofactors); predicted hepatic clearance; assay type: in vitro ADME; settings: liver microsomes 1.0 mg protein/mL (+UDPGA +NADPH), 1 μM analyte, 37° C.; scaled with human liver weight and hepatic blood flow 1.3 L/hr/kg
Experimental: Metabolic stability of compounds was assessed using human or rat liver microsomal assays (Corning). In these assays, 10 nL of each analyte at a concentration of 1 mM in 100% DMSO was dispensed into a well of a polypropylene plates using the Echo 550 acoustic liquid dispenser (Labcyte®). Each plate contained 384 wells with a single analyte in each well.
A solution of human (Corning® Gentest™ Human Mixed Pooled Microsomes or rat (Corning® Gentest™ Rat [Sprague-Dawley] Pooled Liver Microsomes) liver microsomes at 2 mg/ml in 100 mM K2HPO4/KH2PO4 at pH 7. 4 was combined with alamethicin from Trichoderma viride (Sigma-Aldrich) 0.0225 mg/ml. The mixture was incubated on ice for 15 minutes. 5 μL of this mixture was added to individual wells following a 15 minute incubation at room temperature and supplemented with 5 μL NADPH Regenerating Solution of cofactors (Corning® Gentest™ UGT Reaction Mix) containing 100 mM K2HPO4/KH2PO4 at pH 7.4, 2.6 mM NADP+, 6.6 mM glucose-6-phosphate, 6.6 mM MgCl2, 0.8 U/mL glucose-6-phosphate dehydrogenase, 0.1 mM sodium citrate, and 6.8 mM uridine diphosphate-glucuronic acid. The final concentration of each analyte compound at the beginning of the reaction was 1 μM. The reactions were incubated at 37° C. and samples were collected at time points of 0, 5, 15, 30, 40, 50, 60, and 70 minutes for further analysis. Background data were collected using reactions without analyte compounds.
Upon collection of the sample time points, samples were quenched with 30 μL of a solution of 72% acetonitrile, 8% methanol, 0.1% formic acid, 19.9% water, and internal standard (IS). Reaction plates were spun in a centrifuge at speed of 4,000 rcf for 30 minutes at 4° C., following a dilution of the 10 μL quenched reaction into 40 μL de-ionized water, yielding assay plates.
Assay plates were analyzed using solid-state extraction coupled with quadrupole time-of-flight mass spectrometer, using Agilent QToF 6530 RapidFire 360 system, with C4 type A solid state cartridges. Analysis was performed in either positive or negative ionization modes. Mobile phases contained 0.1% formic acid in water for loading analytes onto solid state extraction cartridges and 0.1% formic acid in acetonitrile for elution into a mass spectrometer in positive ionization mode, or 0.1% acetic acid in water for loading and 0.1% acetic acid in acetonitrile for extraction in negative ionization mode. Peak-area ratios of integrated counts for individual compounds to IS were plotted as semi-logarithmic chart of log vs time. The initial linear portion of decay was fitted to a linear regression equation to derive the half-time of analyte decay.
Pharmacological parameters for an analyte compound metabolism were calculated using the following equations: […]
wherein concentration refers to the protein concentration (mg/ml) in the reaction.
This scales the in vitro intrinsic clearance up to the value that would be predicted for the entire mass of liver tissue (but with no restriction by blood flow). The value depends upon the size of the liver (species-dependent) and the yield of microsomal protein as appropriate (assumed to be species-independent).
Hepatic clearance will depend upon the inter-relationship of intrinsic clearance and hepatic blood flow and was predicted from in vitro data using a variety of approaches.
The hepatic extraction is reported as the predicted clearance expressed as a proportion of hepatic blood flow.

GLP-1R = GLP-1R (Homo sapiens (Human), UniProt P43220); assay: GLP-1R activation: cAMP increase in CHO cells stably expressing GLP-1R; assay type: cell-based; settings: cAMP increase, 10 point dose response, 30 minutes incubation at 37° C., read-out: EC50
GLP-1R, sequence (P43220 24-463): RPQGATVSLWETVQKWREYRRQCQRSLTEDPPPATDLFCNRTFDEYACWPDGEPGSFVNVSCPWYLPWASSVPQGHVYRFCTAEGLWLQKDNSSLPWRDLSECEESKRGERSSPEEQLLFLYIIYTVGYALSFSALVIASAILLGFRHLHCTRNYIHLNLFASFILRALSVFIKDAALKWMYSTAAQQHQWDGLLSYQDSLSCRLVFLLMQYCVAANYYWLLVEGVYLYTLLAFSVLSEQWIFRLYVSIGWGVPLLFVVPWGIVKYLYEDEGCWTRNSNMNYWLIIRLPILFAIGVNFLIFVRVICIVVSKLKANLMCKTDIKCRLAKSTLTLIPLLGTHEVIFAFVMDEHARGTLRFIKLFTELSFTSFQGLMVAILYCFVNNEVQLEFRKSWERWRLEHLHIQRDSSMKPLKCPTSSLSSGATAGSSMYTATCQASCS
Experimental: GLP-1R activation by a compound of the present disclosure was quantified by measuring cAMP increase in CHO cells stably expressing GLP-1R (MultiSpan product #C1267-1a). […] The cells were then incubated overnight at 37° C., 5% CO2. […] 1% BSA (Rockland Immunochemicals product #BSA-1000)). Following the medium change, the cells were incubated for 1 hour at 37° C., 5% CO2. The tested GLP-1 compound was added to the cells in a 10 point dose response followed by a 30 minutes incubation at 37° C., 5% CO2. cAMP concentration increase was then detected using Cisbio's cAMP Gs Dynamic Kit (product #62AM4PEC) according to the manufacturer's protocol. The response was plotted against the log of the agonist concentration and fitted to a sigmoidal equation to determine the EC50.

| Compound | Predicted Hepatic Clearance (Pred. Cl.) [1] [mL/min/kg] | EC50 (GLP-1R) [nM] |
| --- | --- | --- |
| CC1(c2ccc(C#N)cc2F)Oc2cccc(-c3cc(F)c(Cc4nc5ccc(C(=O)O)cc5n4C[C@@H]4CCO4)c(F)c3)c2O1 (single isomer, unassigned) [Example 93] | 6 | 0.52 |
| CC1(c2ccc(Cl)cc2F)Oc2cccc(-c3ccc(Cc4nc5ccc(C(=O)O)cc5n4Cc4ccon4)c(F)c3)c2O1 (stereo not drawn) [Example 107, 2-(4-(2-(4-chloro-2-fluorophenyl)-2-methylbenzo[d][1, 3]dioxol-4-yl)-2-fluorobenzyl)-1-(isoxazol-3-ylmethyl)-3a,7a-dihydro-1H-benzo[d]imidazole-6-carboxylic acid] | 4.33 | 1.9 |
| COCCn1c(Cc2ccc(-c3cccc4c3OC(C)(c3nc5ccccc5n3C)O4)cc2F)nc2ccc(C(=O)O)cc21 (stereo not drawn) [Example 52, 2-[[2-fluoro-4-[2-methyl-2-(1-methylbenzimidazol-2-yl)-1,3-benzodioxol-4-yl]phenyl]methyl]-3-(2-methoxyethyl) benzimidazole-5-carboxylic acid] | 17.8 | 2270 |
| COCCn1c(Cc2c(F)cc(-c3cccc4c3OC(C)(c3ccc(Cl)cc3F)O4)cc2F)nc2ccc(C(=O)NS(=O)(=O)C3CC3)cc21 (racemic) [Example 3, 2-(4-(2-(4-chloro-2-fluorophenyl)-2-methylbenzo[d][1, 3]dioxol-4-yl)-2,6-difluorobenzyl)-N-(cyclopropylsulfonyl)-1-(2-methoxyethyl)-1H-benzo[d]imidazole-6-carboxamide] | 2 | 78 |
| CC1(c2ccc(C(F)(F)F)cc2)Oc2cccc(-c3cc(F)c(Cc4nc5ccc(C(=O)O)cc5n4C[C@@H]4CCO4)cc3F)c2O1 (stereo partly drawn) [Example 63, 2-(2,5-difluoro-4-(2-methyl-2-(4-(trifluoromethyl)phenyl)benzo[d][1, 3]dioxol-4-yl)benzyl)-1-(((S)-oxetan-2-yl)methyl)-1H-benzo[d]imidazole-6-carboxylic acid] | 3.5 | 0.62 |
| COCCn1c(Cc2ccc(-c3cccc4c3OC(c3ccc(Cl)cc3F)C4)cc2F)nc2ccc(C(=O)O)cc21 (stereo not drawn) [Example 79, 2-(4-(2-(4-chloro-2-fluorophenyl)-2,3-dihydrobenzofuran-7-yl)-2-fluorobenzyl)-1-(2-methoxyethyl)-1H-benzo[d]imidazole-6-carboxylic acid] | 2.33 | 738 |
| CC1(c2ccc(Cl)cc2F)Oc2cccc(-c3cc(F)c(Cc4nc5c(F)cc(C(=O)O)cc5n4CC4(CC#N)CC4)c(F)c3)c2O1 (single isomer, unassigned) [Example 105, 2-(4-(2-(4-chloro-2-fluorophenyl)-2-methylbenzo[d][1, 3]dioxol-4-yl)-2,6-difluorobenzyl)-1-((1-(cyanomethyl)cyclopropyl)methyl)-4-fluoro-1H-benzo[d]imidazole-6-carboxylic acid] | 1.83 | 2.6 |
| CC1(c2ccc(Cl)cc2F)Oc2cccc(-c3cc(F)c(Cc4nc5ccc(C(=O)O)cc5n4CCS(C)(=O)=O)c(F)c3)c2O1 (stereo not drawn) [Example 82, 2-[[4-[2-(4-chloro-2-fluoro-phenyl)-2-methyl-1,3-benzodioxol-4-yl]-2,6-difluoro-phenyl]methyl]-3-(2-methylsulfonylethyl) benzimidazole-5-carboxylic acid] | – | 20 |
| CC1(c2ccc(Cl)cc2F)Oc2cccc(-c3cc(F)c(Cc4nc5ccc(C(=O)O)cc5n4Cc4ncco4)c(F)c3)c2O1 (stereo not drawn) [Example 69, 2-(4-(2-(4-chloro-2-fluorophenyl)-2-methylbenzo[d][1, 3]dioxol-4-yl)-2,6-difluorobenzyl)-1-(oxazol-2-ylmethyl)-1H-benzo[d]imidazole-6-carboxylic acid] | 2.5 | 2.5 |
| COCCn1c(Cc2cc(F)c(-c3c(F)ccc4c3OC(C)(c3ccc(Cl)cn3)O4)cc2F)nc2ccc(C(=O)O)cc21 (stereo not drawn) [Example 101, 2-(4-(2-(5-chloropyridin-2-yl)-5-fluoro-2-methylbenzo[d][1, 3]dioxol-4-yl)-2,5-difluorobenzyl)-1-(2-methoxyethyl)-1H-benzo[d]imidazole-6-carboxylic acid] | 11.8 | 160 |
| CC1(c2ccc(Cl)cc2F)Oc2cccc(-c3cc(F)c(Cc4nc5c(F)cc(C(=O)O)cc5n4CC4(CC#N)CC4)c(F)c3)c2O1 (single isomer, unassigned) [Example 106, 2-(4-(2-(4-chloro-2-fluorophenyl)-2-methylbenzo[d][1, 3]dioxol-4-yl)-2,6-difluorobenzyl)-1-((1-(cyanomethyl)cyclopropyl)methyl)-4-fluoro-1H-benzo[d]imidazole-6-carboxylic acid] | 15.2 | 0.64 |
| COCCn1c(Cc2c(F)cc(-c3cccc4c3OC3c5ccc(Cl)cc5OC43)cc2F)nc2ccc(C(=O)O)cc21 (stereo not drawn) [Example 54, 2-(4-(7-chloro-4b,9b-dihydrobenzofuro [3,2-b]benzofuran-1-yl)-2,6-difluorobenzyl)-1-(2-methoxyethyl)-1H-benzo[d]imidazole-6-carboxylic acid] | 3 | 628 |
| COCCn1c(Cc2cc(F)c(-c3cccc4c3OC(C)(c3ccc(Cl)cn3)O4)cc2F)nc2ccc(C(=O)O)cc21 (stereo not drawn) [Example 114, 2-[[4-[2-(5-chloro-2-pyridyl)-2-methyl-1,3-benzodioxol-4-yl]-2,5-difluoro-phenyl]methyl]-3-(2-methoxyethyl) benzimidazole-5-carboxylic acid] | 7.67 | – |
| COCCn1c(Cc2cc(F)c(-c3cccc4c3OC(C)(c3ccc(Cl)cc3F)O4)cc2F)nc2ccc(C(=O)O)cc21 (stereo not drawn) [Example 113, 2-[[4-[2-(4-chloro-2-fluoro-phenyl)-2-methyl-1,3-benzodioxol-4-yl]-2,5-difluoro-phenyl]methyl]-3-(2-methoxyethyl) benzimidazole-5-carboxylic acid] | 5.83 | – |
| COCCn1c(Cc2cc(-c3cccc4c3OC(C)(c3ccc(Cl)cc3F)O4)cs2)nc2ccc(C(=O)O)cc21 (stereo not drawn) [Example 59, 2-((4-(2-(4-chloro-2-fluorophenyl)-2-methylbenzo[d][1, 3]dioxol-4-yl)thiophen-2-yl)methyl)-1-(2-methoxyethyl)-1H-benzo[d]imidazole-6-carboxylic acid] | – | 1620 |
| CC1(c2ccc(Cl)cc2F)Oc2cccc(-c3ccc(Cc4nc5ccc(C(=O)O)cc5n4CC4(n5ccnn5)CC4)c(F)c3)c2O1 (stereo not drawn) [Example 51, 1-((1-(1H-1,2,3-triazol-1-yl)cyclopropyl)methyl)-2-(4-(2-(4-chloro-2-fluorophenyl)-2-methylbenzo[d][1, 3]dioxol-4-yl)-2-fluorobenzyl)-1H-benzo[d]imidazole-6-carboxylic acid] | 2.5 | – |
